{"source": "patent EP1607399B1", "about": "(priority 2000, dated 2001)", "test_system": "RPMI 8322 human melanoma cells", "format": "cell-based", "settings": "read-out: µM to 50% cell viability"}
{"smiles": "Cc1ccc(S(=O)(=O)NCCOP(=O)(N(CCCl)CCCl)N(CCCl)CCCl)cc1", "note": "[Compound 23]", "values": [{"measurement": "IC50", "result": "> 500", "unit": "µM"}]}
